# Data from patent publication US9676782B2, “Substituted pyrazolo[1,5-a]pyrazines as negative allosteric modulators of metabotropic glutamate receptor 3” (Vanderbilt University, priority 2014, dated 2017).
# Like-named read-outs stand apart in the source and are kept apart here.
# Columns and labels:
# [1] = target: rat mGlu5 (Rattus norvegicus (Rat), UniProt P31424); test: mGlu5 Ca2+ flux assay; type: cell-based; details: for Emax at 30 µM: read-out: rat mGlu5 Glu max (%); for Fold selectivity (mGlu3 vs. mGlu5): ratio of rat mGlu5 EC50 or IC50 to rat mGlu3 IC50
# How it was run: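 Ca2+ flux read kinetically (FDSS7000) after overnight culture at 37° C/5% CO2 and a 5 min room-temperature buffer step following dye removal. Signals expressed per well as F/F0 and normalized to peak glutamate response; EC50 fitted by free 4-parameter logistic, three replicates per concentration equally weighted.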
# [2] = target: rat mGlu3 (Rattus norvegicus (Rat), UniProt P31422); test: mGlu3 Ca2+ flux assay; type: cell-based; details: for IC50: NAM potency, decrease of glutamate EC80 response, >30,000 = no measurable activity, >10,000 = no plateau, read-out: rat mGlu3 IC50; for remaining activity at 30 µM: amplitude of response at 30 μM test compound as % of maximal response to glutamate, read-out: rat mGlu3 Glu max (%)
# How it was run: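 This calcium mobilization assay used rat mGlu3 cells cultured overnight (37° C., 5% CO2) and read on the FDSS7000 after a 10 minute room-temperature incubation in 20 μL assay buffer. Each of 360 readings per well was divided by its initial value (F/F0). Potency came from fitting normalized responses against log concentration with an unconstrained 4 parameter logistic equation, weighting triplicate points equally.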
# [3] = PAM, amplitude of response at 30 μM test compound as % of maximal response to glutamate
# [4] = read-out: rat mGlu5 EC50 or IC50
# rat mGlu3, sequence (P31422 23-879): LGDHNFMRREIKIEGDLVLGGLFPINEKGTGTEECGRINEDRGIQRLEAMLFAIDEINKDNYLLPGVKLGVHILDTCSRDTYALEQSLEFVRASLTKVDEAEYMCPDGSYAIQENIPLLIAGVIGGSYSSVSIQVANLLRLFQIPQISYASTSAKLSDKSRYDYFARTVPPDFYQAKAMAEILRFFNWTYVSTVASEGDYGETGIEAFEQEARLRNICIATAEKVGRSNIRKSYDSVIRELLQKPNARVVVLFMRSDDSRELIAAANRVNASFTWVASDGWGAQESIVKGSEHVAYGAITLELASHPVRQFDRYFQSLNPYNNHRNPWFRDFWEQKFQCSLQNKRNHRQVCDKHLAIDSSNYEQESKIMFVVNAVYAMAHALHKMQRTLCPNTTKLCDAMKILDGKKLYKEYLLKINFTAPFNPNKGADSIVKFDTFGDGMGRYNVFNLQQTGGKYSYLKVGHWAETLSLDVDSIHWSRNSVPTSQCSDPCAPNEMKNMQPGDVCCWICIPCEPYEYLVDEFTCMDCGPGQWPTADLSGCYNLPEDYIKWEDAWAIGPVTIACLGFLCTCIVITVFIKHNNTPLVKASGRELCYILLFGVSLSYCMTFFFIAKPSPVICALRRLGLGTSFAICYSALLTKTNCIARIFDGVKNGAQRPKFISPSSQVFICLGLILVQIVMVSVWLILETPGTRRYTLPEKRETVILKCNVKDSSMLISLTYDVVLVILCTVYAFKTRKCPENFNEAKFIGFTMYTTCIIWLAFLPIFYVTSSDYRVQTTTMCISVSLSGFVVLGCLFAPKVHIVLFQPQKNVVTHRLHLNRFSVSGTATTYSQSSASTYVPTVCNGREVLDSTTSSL
# rat mGlu5, sequence (P31424 21-1203): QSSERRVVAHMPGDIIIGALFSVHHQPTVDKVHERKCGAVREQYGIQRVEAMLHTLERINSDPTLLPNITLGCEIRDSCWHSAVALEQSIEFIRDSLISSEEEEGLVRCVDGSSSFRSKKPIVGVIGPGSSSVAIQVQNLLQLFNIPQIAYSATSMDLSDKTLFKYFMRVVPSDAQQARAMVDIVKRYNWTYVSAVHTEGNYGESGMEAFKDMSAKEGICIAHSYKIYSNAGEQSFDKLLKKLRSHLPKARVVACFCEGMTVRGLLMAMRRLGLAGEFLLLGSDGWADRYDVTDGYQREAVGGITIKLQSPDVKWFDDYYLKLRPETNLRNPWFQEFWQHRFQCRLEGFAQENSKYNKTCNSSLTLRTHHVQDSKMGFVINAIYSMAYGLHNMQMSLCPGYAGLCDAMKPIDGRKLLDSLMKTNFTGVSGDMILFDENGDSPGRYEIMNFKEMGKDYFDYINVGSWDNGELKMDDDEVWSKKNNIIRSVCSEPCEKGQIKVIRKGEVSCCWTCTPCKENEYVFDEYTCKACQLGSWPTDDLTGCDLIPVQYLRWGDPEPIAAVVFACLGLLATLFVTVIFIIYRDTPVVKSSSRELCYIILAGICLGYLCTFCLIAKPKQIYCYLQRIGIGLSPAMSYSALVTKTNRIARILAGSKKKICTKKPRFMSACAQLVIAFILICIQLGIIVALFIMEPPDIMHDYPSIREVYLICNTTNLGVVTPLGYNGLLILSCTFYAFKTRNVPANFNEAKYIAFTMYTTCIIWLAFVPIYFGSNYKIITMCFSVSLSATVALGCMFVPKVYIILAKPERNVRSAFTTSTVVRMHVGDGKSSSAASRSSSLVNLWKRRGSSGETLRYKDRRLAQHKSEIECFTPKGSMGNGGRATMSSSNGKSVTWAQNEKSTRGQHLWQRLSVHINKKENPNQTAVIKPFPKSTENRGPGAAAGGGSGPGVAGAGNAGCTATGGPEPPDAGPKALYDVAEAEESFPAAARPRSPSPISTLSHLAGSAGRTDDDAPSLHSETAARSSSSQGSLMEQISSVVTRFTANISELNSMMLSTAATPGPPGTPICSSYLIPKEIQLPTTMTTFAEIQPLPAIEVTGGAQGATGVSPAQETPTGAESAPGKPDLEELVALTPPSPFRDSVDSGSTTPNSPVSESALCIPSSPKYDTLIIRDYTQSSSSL
Compound,"IC50 ([1]; compound noted as NAM or partial antagonist (PAnt) at mGlu5, glutamate EC80, read-out: rat mGlu5 EC50 or IC50)","Emax at 30 µM ([1]; compound noted as NAM or partial antagonist (PAnt) at mGlu5, response at 30 μM as % of maximal glutamate response)",Fold selectivity (mGlu3 vs. mGlu5) [1],IC50 [2],remaining activity at 30 µM [2],"Emax at 30 µM [1, 3]","EC50 [1, 4]"
"C[C@@H]1CN(c2ccc(F)cc2)C(=O)c2cc(CNc3cccc(OC(F)F)c3)nn21 [Compound 54, (R)-2-(((3-(difluoromethoxy)phenyl)amino)methyl)-5-(4-fluorophenyl)-7-methyl-6,7-dihydropyrazolo[1,5-a]pyrazin-4(5H)-one]",> 10000 nM,36%,>4.9,2040 nM,3.56%,,
"C[C@H]1CN(c2ccc(F)cc2)C(=O)c2cc(CNc3cccc(OC(F)F)c3)nn21 [Compound 55, (S)-2-(((3-(difluoromethoxy)phenyl)amino)methyl)-5-(4-fluorophenyl)-7-methyl-6,7-dihydropyrazolo[1,5-a]pyrazin-4(5H)-one]",,,>5.9,1670 nM,1.85%,28.8%,> 10000 nM
"C[C@@H]1CN(c2ccc(F)cc2)C(=O)c2cc(CNc3ccc(F)cc3)nn21 [Compound 56, (R)-5-(4-fluorophenyl)-2-(((4-fluorophenyl)amino)methyl)-7-methyl-6,7-dihydropyrazolo[1,5-a]pyrazin-4(5H)-one]",,,>25,1160 nM,2.97%,,> 30000 nM
"C[C@H]1CN(c2ccc(F)cc2)C(=O)c2cc(CNc3ccc(F)cc3)nn21 [Compound 57, (S)-5-(4-fluorophenyl)-2-(((4-fluorophenyl)amino)methyl)-7-methyl-6,7-dihydropyrazolo[1,5-a]pyrazin-4(5H)-one]",,,2.38,2320 nM,0.96%,56.7%,5530 nM
"Cc1ccc(NCc2cc3n(n2)[C@H](C)CN(c2ccc(F)cc2)C3=O)cc1 [Compound 58, (R)-5-(4-fluorophenyl)-7-methyl-2-((p-tolylamino)methyl)-6,7-dihydropyrazolo[1,5-a]pyrazin-4(5H)-one]",,,>16,1830 nM,1.27%,,> 30000 nM
"Cc1ccc(NCc2cc3n(n2)[C@@H](C)CN(c2ccc(F)cc2)C3=O)cc1 [Compound 59, (S)-5-(4-fluorophenyl)-7-methyl-2-((p-tolylamino)methyl)-6,7-dihydropyrazolo[1,5-a]pyrazin-4(5H)-one]",,,>5.7,1740 nM,3.14%,48.9%,> 10000 nM
"C[C@@H]1CN(c2ccc(F)cc2)C(=O)c2cc(CNc3ccc(Cl)cc3)nn21 [Compound 60, (R)-2-(((4-chlorophenyl)amino)methyl)-5-(4-fluorophenyl)-7-methyl-6,7-dihydropyrazolo[1,5-a]pyrazin-4(5H)-one]",,,>8.0,1250 nM,0.56%,31.5%,> 10000 nM
"C[C@H]1CN(c2ccc(F)cc2)C(=O)c2cc(CNc3ccc(Cl)cc3)nn21 [Compound 61, (S)-2-(((4-chlorophenyl)amino)methyl)-5-(4-fluorophenyl)-7-methyl-6,7-dihydropyrazolo[1,5-a]pyrazin-4(5H)-one]",,,4.69,1310 nM,2.22%,80.3%,6150 nM
"COc1ccc(NCc2cc3n(n2)[C@H](C)CN(c2ccc(F)cc2)C3=O)cc1 [Compound 62, (R)-5-(4-fluorophenyl)-2-(((4-methoxyphenyl)amino)methyl)-7-methyl-6,7-dihydropyrazolo[1,5-a]pyrazin-4(5H)-one]",,,>10,2990 nM,0.79%,,> 30000 nM
"COc1ccc(NCc2cc3n(n2)[C@@H](C)CN(c2ccc(F)cc2)C3=O)cc1 [Compound 63, (S)-5-(4-fluorophenyl)-2-(((4-methoxyphenyl)amino)methyl)-7-methyl-6,7-dihydropyrazolo[1,5-a]pyrazin-4(5H)-one]",,,>3.5,8370 nM,-0.6%,,> 30000 nM
"C[C@@H]1CN(c2ccc(F)cc2)C(=O)c2cc(CNc3ccc(OC(F)F)cc3)nn21 [Compound 64, (R)-2-(((4-(difluoromethoxy)phenyl)amino)methyl)-5-(4-fluorophenyl)-7-methyl-6,7-dihydropyrazolo[1,5-a]pyrazin-4(5H)-one]",,,>22,1350 nM,2.46%,,> 30000 nM
"C[C@H]1CN(c2ccc(F)cc2)C(=O)c2cc(CNc3ccc(OC(F)F)cc3)nn21 [Compound 65, (S)-2-(((4-(difluoromethoxy)phenyl)amino)methyl)-5-(4-fluorophenyl)-7-methyl-6,7-dihydropyrazolo[1,5-a]pyrazin-4(5H)-one]",,,>22,1340 nM,2.16%,,> 30000 nM
"C[C@@H]1CN(c2ccc(F)cc2)C(=O)c2cc(CNc3ccc(CC#N)cc3)nn21 [Compound 66, (R)-2-(4-(((5-(4-fluorophenyl)-7-methyl-4-oxo-4,5,6,7-tetrahydropyrazolo[1,5-a]pyrazin-2-yl)methyl)amino)phenyl)acetonitrile]",,,>20,1460 nM,0.95%,,> 30000 nM
"C[C@H]1CN(c2ccc(F)cc2)C(=O)c2cc(CNc3ccc(CC#N)cc3)nn21 [Compound 67, (S)-2-(4-(((5-(4-fluorophenyl)-7-methyl-4-oxo-4,5,6,7-tetrahydropyrazolo[1,5-a]pyrazin-2-yl)methyl)amino)phenyl)acetonitrile]",,,>11,2560 nM,1.96%,,> 30000 nM
"C[C@@H]1CN(c2ccc(F)cc2)C(=O)c2cc(CNc3cccc(F)c3F)nn21 [Compound 68, (R)-2-(((2,3-difluorophenyl)amino)methyl)-5-(4-fluorophenyl)-7-methyl-6,7-dihydropyrazolo[1,5-a]pyrazin-4(5H)-one]",,,>8.1,1230 nM,2.68%,53.2%,> 10000 nM
"C[C@H]1CN(c2ccc(F)cc2)C(=O)c2cc(CNc3cccc(F)c3F)nn21 [Compound 69, (S)-2-(((2,3-difluorophenyl)amino)methyl)-5-(4-fluorophenyl)-7-methyl-6,7-dihydropyrazolo[1,5-a]pyrazin-4(5H)-one]",,,2.59,2220 nM,2.19%,89.1%,5750 nM
"C[C@@H]1CN(c2ccc(F)cc2)C(=O)c2cc(CNc3cc(F)ccc3F)nn21 [Compound 70, (R)-2-(((2,5-difluorophenyl)amino)methyl)-5-(4-fluorophenyl)-7-methyl-6,7-dihydropyrazolo[1,5-a]pyrazin-4(5H)-one]",,,>8.7,1140 nM,2.67%,57.5%,> 10000 nM
"C[C@H]1CN(c2ccc(F)cc2)C(=O)c2cc(CNc3cc(F)ccc3F)nn21 [Compound 71, (S)-2-(((2,5-difluorophenyl)amino)methyl)-5-(4-fluorophenyl)-7-methyl-6,7-dihydropyrazolo[1,5-a]pyrazin-4(5H)-one]",,,7.33,1310 nM,1.6%,76.6%,9600 nM
"C[C@@H]1CN(c2ccc(F)cc2)C(=O)c2cc(CNc3c(F)cccc3F)nn21 [Compound 72, (R)-2-(((2,6-difluorophenyl)amino)methyl)-5-(4-fluorophenyl)-7-methyl-6,7-dihydropyrazolo[1,5-a]pyrazin-4(5H)-one]",,,,,4.1%,59.9%,
"C[C@H]1CN(c2ccc(F)cc2)C(=O)c2cc(CNc3c(F)cccc3F)nn21 [Compound 73, (S)-2-(((2,6-difluorophenyl)amino)methyl)-5-(4-fluorophenyl)-7-methyl-6,7-dihydropyrazolo[1,5-a]pyrazin-4(5H)-one]",,,,,4.07%,63.9%,
"C[C@H]1CN(c2ccc(F)cc2)C(=O)c2cc(CNc3cc(F)cc(F)c3)nn21 [Compound 74, (S)-2-(((3,5-difluorophenyl)amino)methyl)-5-(4-fluorophenyl)-7-methyl-6,7-dihydropyrazolo[1,5-a]pyrazin-4(5H)-one]",,,>4.2,2350 nM,-2.19%,59.3%,> 10000 nM
"C[C@@H]1CN(c2ccc(F)cc2)C(=O)c2cc(CNc3ccc(F)cc3F)nn21 [Compound 75, (R)-2-(((2,4-difluorophenyl)amino)methyl)-5-(4-fluorophenyl)-7-methyl-6,7-dihydropyrazolo[1,5-a]pyrazin-4(5H)-one]",,,7.56,771 nM,2.66%,85.6%,5830 nM
